Measured values: patent publication US11339144B2 (Navitor Pharmaceuticals, Inc., priority 2017, dated 2022)
pIC50: −log10 of the molar value.

Columns and labels:
Rheb = Rheb (Homo sapiens (Human), UniProt Q15382); assay: Affinity Selection Mass Spectrometry (ASMS); assay type: binding; settings: affinity (R3/R0) in Affinity Selection Mass Spectrometry assay
In short: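 Affinity selection used 2 μM compound with 60 μM Rheb and 180 μM GDP for 30 min at room temperature. After 10 kDa ultrafiltration washes, protein was denatured in MeCN and bound compound quantified by C18 UPLC with Q-TOF MS, against a no-protein control.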

[1] = molecular target: HA-GST-Rheb (GTP-γ-S loaded) activating mTORC1 (Homo sapiens (Human), UniProt Q15382); assay: Rheb-dependent in vitro kinase assay (Rheb-IVK; LanthaScreen or Western readout); assay type: biochemical; settings: Rheb-dependent in vitro kinase assay; read-out: IVK IC50
HA-GST-Rheb (GTP-γ-S loaded) activating mTORC1, sequence (Q15382 1-181): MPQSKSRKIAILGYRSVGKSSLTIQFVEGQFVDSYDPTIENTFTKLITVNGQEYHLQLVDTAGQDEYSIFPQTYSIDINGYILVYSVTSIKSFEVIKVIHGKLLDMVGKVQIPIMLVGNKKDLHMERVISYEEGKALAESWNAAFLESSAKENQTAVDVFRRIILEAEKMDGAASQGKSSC

Rheb, sequence (Q15382 1-169 limits assumed): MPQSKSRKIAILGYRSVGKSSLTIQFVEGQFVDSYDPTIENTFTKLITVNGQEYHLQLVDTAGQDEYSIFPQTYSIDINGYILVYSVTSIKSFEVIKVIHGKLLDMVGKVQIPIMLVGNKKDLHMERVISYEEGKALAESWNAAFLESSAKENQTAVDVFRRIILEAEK

Row | SMILES | ASMS (R3/R0) (Rheb) | pIC50 [1]
1 | CN1CCN(C(=O)c2cc3c(Sc4ccc(Cl)cc4)cc(Cl)cc3[nH]2)CC1 [I-90] | B (an affinity (R3/R0) between 100% and 20%) | < 4.00
2 | O=C(O)c1ccc(CCn2c(-c3ccnc4[nH]ccc34)nc3cc(Cl)c(Cl)cc32)cc1 [I-331, 4-(2-(5,6-dichloro-2-(1H-pyrrolo[2,3-b]pyridin-4-yl)-1H-benzo[d]imidazol-1-yl)ethyl)benzoic acid] | B (an affinity (R3/R0) between 100% and 20%) | 4.00 to 5.00
3 | O[C@@H]1CCC[C@@H](COc2c(Cl)c(Cl)cc3[nH]c(-c4ccncc4)nc23)C1 [I-323] | B (an affinity (R3/R0) between 100% and 20%) | < 5.52
4 | O=C(O)c1cc2c(Br)cc(Sc3ccc(Cl)c(Cl)c3)cc2[nH]1 [I-139, 4-bromo-6-(3,4-dichlorophenylthio)-1H-indole-2-carboxylic acid] | B (an affinity (R3/R0) between 100% and 20%) | > 5.00
5 | OCc1nc2c(OC[C@H]3CNCC[C@@H]3O)c(Cl)c(Cl)cc2[nH]1 (racemic) [I-385] | C (an affinity (R3/R0)<20%) | < 4.00
6 | O=C(O)c1cc2nc(-c3ccnc4[nH]ccc34)[nH]c2c(Cl)c1Cl [I-327] | C (an affinity (R3/R0)<20%) | < 4.00
7 | CN(C)C(=O)c1ccc(Cn2c(C(=O)O)cc3c(Sc4cccc(OC(F)(F)F)c4)cc(Sc4cccc(OC(F)(F)F)c4)cc32)cc1 [I-19, 1-(4-(dimethylcarbamoyl)benzyl)-4,6-bis(3-(trifluoromethoxy)phenylthio)-1H-indole-2-carboxylic acid] | B (an affinity (R3/R0) between 100% and 20%) | > 5.00
8 | OCc1nc2cc(Cl)c(SCc3ccc(Cl)cc3Cl)cc2[nH]1 [I-361, (5-chloro-6-(2,4-dichlorobenzylthio)-1H-benzo[d]imidazol-2-yl)methanol] | B (an affinity (R3/R0) between 100% and 20%) | 3.52 to 4.00
9 | Clc1ccc(Cl)c(Sc2cccc3[nH]ccc23)c1 [I-209, 4-(2,5-dichlorophenylthio)-1H-indole] | B (an affinity (R3/R0) between 100% and 20%) | 4.00 to 5.00
10 | O=C(O)c1cc2c(Oc3ccccc3)cc(Cl)cc2[nH]1 [I-175, 6-chloro-4-phenoxy-1H-indole-2-carboxylic acid] | B (an affinity (R3/R0) between 100% and 20%) | 3.52 to 4.00
11 | CN(C)C(=O)c1ccc(Cn2c(C(=O)O)cc3c(Br)cc(Sc4ccc5ccccc5c4)cc32)cc1 [I-28, 4-bromo-1-(4-(dimethylcarbamoyl)benzyl)-6-(naphthalen-2-ylthio)-1H-indole-2-carboxylic acid] | B (an affinity (R3/R0) between 100% and 20%) | > 5.00
12 | CN1CCN(C(=O)Cc2nc3cc(Cl)c(OCc4ccc(Cl)cc4)cc3[nH]2)CC1 [I-332, 2-[5-chloro-6-[(4-chlorophenyl)methoxy]-1H-benzimidazol-2-yl]-1-(4-methylpiperazin-1-yl)ethanone] | A (an affinity (R3/R0)>100%) | 4.00 to 5.00
13 | CC(C)(C)OC(=O)c1ccc(Cn2c(C(=O)O)cc3c(Br)cc(Sc4ccc(Cl)c(Cl)c4)cc32)cc1 [I-109, 4-Bromo-1-(4-(tert-butoxycarbonyl)benzyl)-6-(3,4-dichlorophenylthio)-1H-indole-2-carboxylic acid] | B (an affinity (R3/R0) between 100% and 20%) | 4.00 to 5.00
14 | Clc1ccc(Sc2cccc3[nH]ccc23)c(Cl)c1 [I-212] | B (an affinity (R3/R0) between 100% and 20%) | < 5.52
15 | CN(C)C(=O)c1ccc(Cn2c(C#N)cc3c(Br)cc(Sc4ccc(Cl)c(Cl)c4)cc32)cc1 [I-13] | B (an affinity (R3/R0) between 100% and 20%) | < 4.00
16 | O=C(O)c1cc2c(Sc3ccc(Oc4ccccc4)cc3)cc(Cl)cc2[nH]1 [I-118, 6-chloro-4-(4-phenoxyphenylthio)-1H-indole-2-carboxylic acid] | B (an affinity (R3/R0) between 100% and 20%) | > 5.00
17 | O=C(O)c1cc2c(Br)cc(Oc3ccccc3)cc2n1Cc1ccc(C(=O)N2CCNCC2)cc1 [I-61] | C (an affinity (R3/R0)<20%) | < 4.00
18 | OCc1nc2c(Sc3ccc(Cl)cc3Cl)c(Cl)c(Cl)cc2[nH]1 [I-371, (5,6-dichloro-4-(2,4-dichlorophenylthio)-1H-benzo[d]imidazol-2-yl)methanol] | B (an affinity (R3/R0) between 100% and 20%) | 4.00 to 5.00
19 | OCc1cc2c(Oc3ccc(C4CCCCC4)cc3)cc(Cl)cc2[nH]1 [I-127, (6-chloro-4-(4-cyclohexylphenoxy)-1H-indol-2-yl)methanol] | B (an affinity (R3/R0) between 100% and 20%) | > 5.00
20 | CN(C)c1cc(-c2nc3cc(Cl)c(Cl)cc3[nH]2)ccn1 [I-351] | A (an affinity (R3/R0)>100%) | < 4.00
21 | CN1CCC(CCNC(=O)c2ccc(-c3nc4cc(Cl)c(Cl)cc4[nH]3)cc2)CC1 [I-362] | A (an affinity (R3/R0)>100%) | < 4.00
22 | OCc1nc2cc(OCc3ccccc3F)c(Cl)cc2[nH]1 [I-481] | C (an affinity (R3/R0)<20%) | < 4.00
23 | Cn1c(CO)cc2c(Oc3cccc(Cl)c3)cccc21 [I-271] | C (an affinity (R3/R0)<20%) | < 5.52
24 | CC(C)(C)OC(=O)c1ccc(Cn2c(CO)cc3c(Br)cc(Oc4ccccc4)cc32)cc1 [I-151] | C (an affinity (R3/R0)<20%) | < 4.00
25 | O=C(O)c1nc2cc(OCc3ccc(Cl)cc3)c(Cl)cc2[nH]1 [I-343, 6-chloro-5-(4-chlorobenzyloxy)-1H-benzo[d]imidazole-2-carboxylic acid] | A (an affinity (R3/R0)>100%) | 4.00 to 5.00
26 | O=C(O)c1cc2c(Br)cc(Sc3ccc(Cl)c(Cl)c3)cc2n1Cc1ccc(C(=O)N2CCNCC2)cc1 [I-43] | A (an affinity (R3/R0)>100%) | < 4.00
27 | O=C(O)Cn1c(-c2c[nH]c3ncccc23)nc2cc(Cl)c(Cl)cc21 [I-334, 2-(5,6-dichloro-2-(1H-pyrrolo[2,3-b]pyridin-3-yl)-1H-benzo[d]imidazol-1-yl)acetic acid] | B (an affinity (R3/R0) between 100% and 20%) | 4.00 to 5.00
28 | Clc1ccc2nc(-c3ncco3)n(Cc3ccc(-c4nnn[nH]4)cc3)c2c1 [I-411, 2-(1-(4-(1H-tetrazol-5-yl)benzyl)-6-chloro-1H-benzo[d]imidazol-2-yl)oxazole] | C (an affinity (R3/R0)<20%) | 4.00 to 5.00
29 | OCc1nc2cc(SCc3ccc(Cl)cc3)c(Cl)c(Cl)c2[nH]1 [I-356, (6,7-dichloro-5-(4-chlorobenzylthio)-1H-benzo[d]imidazol-2-yl)methanol] | A (an affinity (R3/R0)>100%) | 4.00 to 5.00
30 | O=C(NCC1CCN(Cc2ccccc2)C1)c1cc2c(Sc3ccc(Cl)cc3)cc(Cl)cc2[nH]1 (stereo not shown) [I-136] | A (an affinity (R3/R0)>100%) | < 4.00

The next lines start with the values.

Row | ASMS (R3/R0) (Rheb) | pIC50 [1] | SMILES
31 | A (an affinity (R3/R0)>100%) | > 5.00 | CN1CCCN(c2ccc(NC(=O)c3cc4c(Sc5ccc(Cl)cc5Cl)cc(Cl)c(Cl)c4[nH]3)cc2F)CC1 [I-32, 6,7-dichloro-4-(2,4-dichlorophenyl)sulfanyl-N-[3-fluoro-4-(4-methyl-1,4-diazepan-1-yl)phenyl]-1H-indole-2-carboxamide]
32 | C (an affinity (R3/R0)<20%) | 4.00 to 5.00 | OCCCc1cc2c(Oc3ccccc3)c(Cl)ccc2[nH]1 [I-248, 3-(5-chloro-4-phenoxy-1H-indol-2-yl)propan-1-ol]
33 | C (an affinity (R3/R0)<20%) | 4.00 to 5.00 | OCc1cc2c(F)cc(Oc3ccccc3)cc2[nH]1 [I-249, (4-fluoro-6-phenoxy-1H-indol-2-yl)methanol]
34 | A (an affinity (R3/R0)>100%) | > 5.00 | CN1CCN(c2cccc(NC(=O)c3cc4c(Sc5ccc(Cl)cc5Cl)cc(Cl)c(Cl)c4[nH]3)c2)CC1 [I-33, 6,7-dichloro-4-(2,4-dichlorophenylthio)-N-(3-(4-methylpiperazin-1-yl)phenyl)-1H-indole-2-carboxamide]
35 | A (an affinity (R3/R0)>100%) | > 5.00 | CN(C)C(=O)c1ccc(Cn2c(C(=O)O)cc3c4ccccc4c(Sc4ccc(Cl)c(Cl)c4)cc32)cc1 [I-9, 5-(3,4-dichlorophenylthio)-3-(4-(dimethylcarbamoyl)benzyl)-3H-benzo[e]indole-2-carboxylic acid]
36 | C (an affinity (R3/R0)<20%) | 4.00 to 5.00 | Clc1ccc(Cl)c(Oc2cccc3[nH]ccc23)c1 [I-251, 4-(2,5-Dichlorophenoxy)-1H-indole]
37 | C (an affinity (R3/R0)<20%) | 4.00 to 5.00 | OCc1cc2c(Cl)cc(Oc3ccccc3)cc2n1Cc1nn[nH]n1 [I-194, (1-((2H-tetrazol-5-yl)methyl)-4-chloro-6-phenoxy-1H-indol-2-yl)methanol]
38 | A (an affinity (R3/R0)>100%) | 4.00 to 5.00 | O=[N+]([O-])c1ccc(COc2cc3nc(CO)[nH]c3c(Cl)c2Cl)cc1 [I-329, (6,7-dichloro-5-(4-nitrobenzyloxy)-1H-benzo[d]imidazol-2-yl)methanol]
39 | C (an affinity (R3/R0)<20%) | 4.00 to 5.00 | Clc1ccc(Oc2cc(Cl)cc3[nH]ccc23)cc1 [I-204, 6-chloro-4-(4-chlorophenoxy)-1H-indole]
40 | C (an affinity (R3/R0)<20%) | 4.00 to 5.00 | OCc1nc2c(OC[C@H]3CCCC[C@@H]3O)c(Cl)c(Cl)cc2[nH]1 [I-439, 2-((5,6-dichloro-2-(hydroxymethyl)-1H-benzo[d]imidazol-4-yloxy)methyl)cyclohexanol]
41 | A (an affinity (R3/R0)>100%) | > 5.00 | O=C(O)c1cc2c(Sc3ccc(Cl)cc3Cl)cc(Cl)cc2n1Cc1ccc(-c2ccncc2)cc1 [I-70, 6-chloro-4-(2,4-dichlorophenylthio)-1-(4-(pyridin-4-yl)benzyl)-1H-indole-2-carboxylic acid]
